Measurements reported in patent US6737383B1, “Herbicidal oxadiazolidines” (priority 1999, dated 2004).

Experiments:
velvetleaf = assay: Test B pre/postemergence velvetleaf; assay type: in vivo, Abutilon theophrasti; conditions: for Plant response rating, Velvetleaf: Postemergence
Method in brief: (§1)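 Herbicidal effect was estimated by eye on a ten-point control scale after plants spent twelve to sixteen days in a greenhouse following soil or foliar treatment. Foliar sprays targeted plants at one to four leaves; all doses were formulated in a non-phytotoxic solvent with surfactant.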

pigweed = assay: Test B pre/postemergence pigweed; assay type: in vivo, Amaranthus retroflexus; conditions: for Plant response rating, Redroot pigweed: Postemergence
Method in brief: as §1

sugar beet = assay: Test B pre/postemergence sugar beet; assay type: in vivo, Beta vulgaris; conditions: for Plant response rating, Sugarbeets: Postemergence
Method in brief: as §1

rape = assay: Test B pre/postemergence rape; assay type: in vivo, Brassica napus
Method in brief: as §1

bedstraw = assay: Test B pre/postemergence bedstraw; assay type: in vivo, Galium aparine
Method in brief: as §1

crabgrass = assay: Test B pre/postemergence crabgrass; assay type: in vivo, Digitaria sanguinalis
Method in brief: as §1

soybean = assay: Test B pre/postemergence soybean; assay type: in vivo, Glycine max; conditions: for Plant response rating, Soybean: Postemergence
Method in brief: as §1

surinam grass = assay: Test B pre/postemergence surinam grass; assay type: in vivo, Brachiaria decumbens
Method in brief: as §1

blackgrass = assay: Test B pre/postemergence blackgrass; assay type: in vivo, Alopecurus myosuroides
Method in brief: as §1

wild oat = assay: Test B pre/postemergence wild oat; assay type: in vivo, Avena fatua; conditions: for Plant response rating, Wild oats: Postemergence
Method in brief: as §1

corn = assay: Test B pre/postemergence corn; assay type: in vivo, Zea mays
Method in brief: as §1

morningglory = assay: Test B pre/postemergence morningglory; assay type: in vivo, Ipomoea hederacea
Method in brief: as §1

giant foxtail = assay: Test B pre/postemergence giant foxtail; assay type: in vivo, Setaria faberii
Method in brief: as §1

wheat = assay: Test B pre/postemergence wheat; assay type: in vivo, Triticum aestivum; conditions: for Plant response rating, Wheat: Postemergence
Method in brief: as §1

purple nutsedge = assay: Test B pre/postemergence purple nutsedge; assay type: in vivo, Cyperus rotundus
Method in brief: as §1

cocklebur = assay: Test B pre/postemergence cocklebur; assay type: in vivo, Xanthium strumarium
Method in brief: as §1

[1] = Rate 500 g/ha, scale of 0 to 10 where 0 is no effect and 10 is complete control
[2] = Preemergence, Rate 62 g/ha, scale 0 to 10 (0 no effect, 10 complete control)
[3] = Preemergence, Rate 125 g/ha, scale 0 to 10, 0 is no effect, 10 is complete control
[4] = Preemergence, Rate 500 g/ha, scale of 0 to 10 where 0 is no effect and 10 is complete control
[5] = Rate 250 g/ha, scale of 0 to 10 where 0 is no effect and 10 is complete control
[6] = Postemergence, Rate 62 g/ha, scale of 0 to 10, 0 is no effect, 10 is complete control
[7] = Postemergence, Rate 125 g/ha, scale 0 to 10, 0 is no effect, 10 is complete control
[8] = Postemergence, Rate 500 g/ha, scale of 0 to 10 where 0 is no effect and 10 is complete control
[9] = Rate 250 g/ha, Postemergence, scale of 0 to 10 where 0 is no effect and 10 is complete control

Structure (SMILES): CCOC(=O)C=C(Cn1c(=O)on(C(=O)N(c2ccccc2)C(C)C)c1=O)OCC [Compound 578]
- Plant response rating, Velvetleaf (velvetleaf; [1]): 3
- Velvetleaf plant response rating (velvetleaf; [2]): 0
- Velvetleaf plant response rating (velvetleaf; [3]): 2
- Velvetleaf plant response rating (0 to 10 scale) (velvetleaf; Preemergence, Rate 250 g/ha): 2
- Velvetleaf plant response rating (velvetleaf; [4]): 2
- Plant response rating, Velvetleaf (velvetleaf; [5]): 4
- Plant response rating, Redroot pigweed (pigweed; [1]): 3
- Redroot pigweed plant response rating (pigweed; [2]): 2
- Redroot pigweed plant response rating (pigweed; [3]): 4
- Redroot pigweed plant response rating (0 to 10 scale) (pigweed; Preemergence, Rate 250 g/ha): 9
- Redroot pigweed plant response rating (pigweed; [4]): 10
- Plant response rating, Redroot pigweed (pigweed; [5]): 3
- Plant response rating, Sugarbeets (sugar beet; [1]): 4
- Sugarbeets plant response rating (sugar beet; [2]): 0
- Sugarbeets plant response rating (sugar beet; [3]): 2
- Sugarbeets plant response rating (0 to 10 scale) (sugar beet; Preemergence, Rate 250 g/ha): 3
- Sugarbeets plant response rating (sugar beet; [4]): 3
- Plant response rating, Sugarbeets (sugar beet; [5]): 0
- Rape plant response rating (rape; [6]): 2
- Rape plant response rating (rape; [7]): 2
- Plant response rating, Rape (rape; [8]): 4
- Rape plant response rating (rape; [2]): 0
- Rape plant response rating (rape; [3]): 0
- Rape plant response rating (0 to 10 scale) (rape; Preemergence, Rate 250 g/ha): 2
- Rape plant response rating (rape; [4]): 4
- Plant response rating, Rape (rape; [9]): 4
- Bedstraw plant response rating (bedstraw; [7]): 8
- Bedstraw plant response rating (bedstraw; [2]): 0
- Bedstraw plant response rating (bedstraw; [3]): 0
- Bedstraw plant response rating (0 to 10 scale) (bedstraw; Preemergence, Rate 250 g/ha): 0
- Bedstraw plant response rating (bedstraw; [4]): 0
- Crabgrass plant response rating (crabgrass; [6]): 0
- Crabgrass plant response rating (crabgrass; [7]): 2
- Plant response rating, Crabgrass (crabgrass; [8]): 9
- Crabgrass plant response rating (crabgrass; [2]): 0
- Crabgrass plant response rating (crabgrass; [3]): 9
- Crabgrass plant response rating (0 to 10 scale) (crabgrass; Preemergence, Rate 250 g/ha): 9
- Crabgrass plant response rating (crabgrass; [4]): 10
- Plant response rating, Crabgrass (crabgrass; [9]): 4
- Plant response rating, Soybean (soybean; [1]): 4
- Soybean plant response rating (soybean; [2]): 0
- Soybean plant response rating (soybean; [3]): 0
- Soybean plant response rating (0 to 10 scale) (soybean; Preemergence, Rate 250 g/ha): 0
- Soybean plant response rating (soybean; [4]): 0
- Plant response rating, Soybean (soybean; [5]): 3
- B. signalgrass plant response rating (surinam grass; [6]): 0
- B. signalgrass plant response rating (surinam grass; [7]): 0
- Plant response rating, B. signalgrass (surinam grass; [8]): 0
- B. signalgrass plant response rating (surinam grass; [2]): 0
- B. signalgrass plant response rating (surinam grass; [3]): 3
- B. signalgrass plant response rating (0 to 10 scale, 0 is no effect, 10 is complete control) (surinam grass; Preemergence, Rate 250 g/ha): 9
- B. signalgrass plant response rating (surinam grass; [4]): 9
- Plant response rating, B. signalgrass (surinam grass; [9]): 0
- Blackgrass plant response rating (blackgrass; [6]): 0
- Blackgrass plant response rating (blackgrass; [7]): 0
- Plant response rating, Blackgrass (blackgrass; [8]): 2
- Blackgrass plant response rating (blackgrass; [2]): 0
- Blackgrass plant response rating (blackgrass; [3]): 0
- Blackgrass plant response rating (0 to 10 scale) (blackgrass; Preemergence, Rate 250 g/ha): 0
- Blackgrass plant response rating (blackgrass; [4]): 4
- Plant response rating, Blackgrass (blackgrass; [9]): 0
- Plant response rating, Wild oats (wild oat; [1]): 0
- Wild oats plant response rating (wild oat; [2]): 0
- Wild oats plant response rating (wild oat; [3]): 0
- Wild oats plant response rating (0 to 10 scale) (wild oat; Preemergence, Rate 250 g/ha): 2
- Wild oats plant response rating (wild oat; [4]): 2
- Plant response rating, Wild oats (wild oat; [5]): 0
- Corn plant response rating (corn; [6]): 0
- Corn plant response rating (corn; [7]): 0
- Plant response rating, Corn (corn; [8]): 0
- Corn plant response rating (corn; [2]): 3
- Corn plant response rating (corn; [3]): 2
- Corn plant response rating (0 to 10 scale) (corn; Preemergence, Rate 250 g/ha): 2
- Corn plant response rating (corn; [4]): 4
- Plant response rating, Corn (corn; [9]): 0
- Morningglory plant response rating (morningglory; [6]): 9
- Morningglory plant response rating (morningglory; [7]): 10
- Plant response rating, Morningglory (morningglory; [8]): 10
- Morningglory plant response rating (morningglory; [2]): 0
- Morningglory plant response rating (morningglory; [3]): 0
- Morningglory plant response rating (0 to 10 scale) (morningglory; Preemergence, Rate 250 g/ha): 0
- Morningglory plant response rating (morningglory; [4]): 0
- Plant response rating, Morningglory (morningglory; [9]): 10
- Giant foxtail plant response rating (giant foxtail; [6]): 0
- Giant foxtail plant response rating (giant foxtail; [7]): 4
- Plant response rating, Giant foxtail (giant foxtail; [8]): 8
- Giant foxtail plant response rating (giant foxtail; [2]): 2
- Giant foxtail plant response rating (giant foxtail; [3]): 9
- Giant foxtail plant response rating (0 to 10 scale) (giant foxtail; Preemergence, Rate 250 g/ha): 10
- Giant foxtail plant response rating (giant foxtail; [4]): 10
- Plant response rating, Giant foxtail (giant foxtail; [9]): 7
- Plant response rating, Wheat (wheat; [1]): 0
- Wheat plant response rating (wheat; [2]): 0
- Wheat plant response rating (wheat; [3]): 0
- Wheat plant response rating (0 to 10 scale) (wheat; Preemergence, Rate 250 g/ha): 0
- Wheat plant response rating (wheat; [4]): 2
- Plant response rating, Wheat (wheat; [5]): 0
- Plant response rating, Nutsedge (purple nutsedge; [8]): 0
- Nutsedge plant response rating (purple nutsedge; [2]): 0
- Nutsedge plant response rating (purple nutsedge; [3]): 0
- Nutsedge plant response rating (0 to 10 scale) (purple nutsedge; Preemergence, Rate 250 g/ha): 0
- Nutsedge plant response rating (purple nutsedge; [4]): 0
- Cocklebur plant response rating (cocklebur; [6]): 0
- Cocklebur plant response rating (cocklebur; [7]): 0
- Plant response rating, Cocklebur (cocklebur; [8]): 0
- Cocklebur plant response rating (cocklebur; [2]): 0
- Cocklebur plant response rating (cocklebur; [3]): 0
- Cocklebur plant response rating (0 to 10 scale) (cocklebur; Preemergence, Rate 250 g/ha): 0
- Cocklebur plant response rating (cocklebur; [4]): 3
- Plant response rating, Cocklebur (cocklebur; [9]): 0
